The target in test [1] is T1, BRD4.1 (Homo sapiens (Human), UniProt O60885). Nature of the test: Isothermal Titration Calorimetery (ITC). In kind it is binding. Particulars: BRD4.1, 25° C. Here is the method:
Isothermal Titration Calorimetery
ITC was performed using a ITC200 microcalorimeter from GE™ (Northampton, Mass.). All experiments were carried out at 25° C. while stirring at 1000 rpm, in ITC buffer (50 mM HEPES pH 7.4 at 25° C., 150 mM NaCl). The microsyringe was loaded with a solution of the protein sample (225 μM, in ITC buffer). […] All titrations were conducted using an initial injection of 0.2 μl, followed by 19 identical injections of 2 μl with a duration of 5 sec (per injection) and a spacing of 90 sec between injections. The heat of dilution was determined by independent titrations (protein into buffer) and was subtracted from the experimental data. […] The collected data were implicated in the MicroCal™ Origin software supplied with the instrument to yield enthalpies of binding (ΔH) and binding constants (KB) as previously described by Wiseman and coworkers. Thermodynamic parameters were calculated (ΔG=ΔH−TΔS=−RT ln KB, where ΔG, ΔH and ΔS are the changes in free energy, enthalpy and entropy of binding respectively). A single binding site model was employed.
A general note: Isothermal titration calorimetry measures the heat released or taken up as one component is titrated into another.

In test [2] the test system is HL60 cells. Nature of the test: Cellular assay, cell viability (ATPlite), BRD4 dependent cell line HL60. To be noted: Homo sapiens, HL-60, 72 h; BRD4 dependent cell line HL60, three days incubation. In kind it is cell-based. Here is the method:
(§1) The compounds of the invention are also evaluated in the BRD4 dependant cell line for the cellular activity to generate cellular IC50 values.
(§2) Cells (e.g., BRD4 dependant cells) were counted and adjusted to 60,000 cells/mL. Using a Biotek EL406, 50 μL of the cells in media were distributed into 384 well white plates from Thermo. Immediately after plating, compounds of the invention in DMSO were distributed to plates. For large plate sets, cells were returned to a 37° C. incubator while not in use. The compounds were added to plates using a 100 nL 384 well pin transfer manifold on a Janus workstation. Stocks were arrayed in 10 point quadruplicate dose response in DMSO stock in 384-well Greiner compound plates. After addition of the compounds, plates were incubated for three days in a 37° C. incubator. Cell viability was read out using ATPlite from Perkin Elmer. Plates were removed from the incubator and brought to room temperature prior to use. Lyophilized powder was resuspended in lysis buffer and diluted 1:2 with DI water. 25 μL of this solution was added to each well using the Biotek liquid handler. Plates were sealed with adherent aluminum seals prior to vortexing and spinning down at 1000 g for 1 minute. Plates were incubated for 15 minutes at room temperature before signal was read on an Envision Plate Reader.
On the technique in general: ATP-based viability assays read luminescence as a measure of living cells.

Test [3] relates to 797 cells. Nature of the test: Cellular assay, cell viability (ATPlite), BRD4 dependent cell line 797. In kind it is cell-based. Particulars: 72 h; BRD4 dependent cell line 797, three days incubation. Here is the method:
as §1, §2

Test [4] addresses T1, BRD4.1. Nature of the test: Acetyl-Histone Binding Assay (AlphaScreen). Particulars: in vitro percent inhibition of BRD4.1 at 2.5 μM compound concentration; read-out: % INHIB (at 2.5 uM). Here is the method:
Assays were performed with minor modifications from the manufacturer's protocol (PerkinElmer, USA). All reagents were diluted in 50 mM HEPES, 150 mM NaCl, 0.1% w/v BSA, and 0.01% w/v Tween^□ 20 at pH 7.5 and allowed to equilibrate to room temperature prior to addition to plates. After addition of Alpha beads to master solutions, all subsequent steps were performed in low light conditions. […] Addition to wells was performed with either a multichannel pipet (for optimization experiments) or a Biotek EL406 liquid handler. After a 1000-rpm spin-down for 1 minute, 100 nL of the solutions of the compounds of the invention from stock plates were added by pin transfer using a Janus Workstation (PerkinElmer, USA). The streptavidin-coated donor beads (25 μg/ml final) were added as with previous solution in a 2×, 10 μL volume. Following this addition, the plates were sealed with foil to block light exposure and to prevent evaporation. The plates were spun down again at 1000 rpm for 1 minute. Next, the plates were incubated in the room with the plate reader (for temperature equilibration) for 1.5 hour prior to reading the assay.

Broadly, the Kd is a measure of binding affinity in units of concentration. In general, EC50 refers to the concentration that produces a half-maximal response.

In the case of `CC(C)(C)NS(=O)(=O)c1cccc(Nc2nc(Nc3ccc(OCCN4CCCC4)cc3)ncc2N)c1`, the Kd in test [1] is 483 nM. Further, the EC50 was 2070 nM in test [2] and 2400 nM in test [3]. Consider `CCN1CCN(C(=O)Cc2ccc(Nc3ncc(F)c(Nc4ccc(C(=O)Nc5ccccc5Cl)cc4)n3)cc2)CC1`, for which, in test [4], the inhibition at 2.5 µM was found to be 56.1%. The same measure, in the same setting: in the case of `Cc1cnc(Nc2ccc(OCCN3CCCC3)cc2)nc1Nc1cccc(S(=O)(=O)NC(C)(C)C)c1` it was 36%.

The record behind these values is US10730860B2, “Diaminopyrimidine benzenesulfone derivatives and uses thereof” (Dana-Farber Cancer Institute, Inc., priority 2014, dated 2020).
